# Results as given in patent publication US20070185013A1, “Use of chk1 inhibitors to control cell proliferation” (ICOS CORPORATION, priority 2003, published 2007).
# Test system: H460 tumor cells
# Experiment: H460 non-small cell lung tumor xenograft model, tumor volume (Example 1)
# Assay type: in vivo, mice
# Conditions: gemcitabine alone, 160 mg/kg q3d×3
# Source text: A method of the invention provided an improved antiproliferative effect over co-administration in an art-recognized […] tumor model. In the experiment, gemcitabine was used as the Chk1 activator and a diaryl urea compound according to Keegan et al., PCT/US02/06452, was used as the selective Chk1 inhibitor. (The same Chk1 inhibitor was used in the examples 2-11.) The target phase of gemcitabine is the S phase of the cell cycle. A non-small cell lung tumor xenograft tumor model, H460, was the art-recognized […] tumor model.
# Nude mice were engrafted with H460 tumor cells and allowed to grow to an average of 75 mm3. Tumor-bearing mice were then treated with vehicle, gemcitabine or gemcitabine plus 400 mg/kg selective Chk1 inhibitor. The gemcitabine was administered at a dose of 160 mg/kg q3d×3 either simultaneously with the Chk1 inhibitor (co-administration) or, according to the invention, 18 hours prior to the Chk1 inhibitor to allow for S phase synchronization.
# Tumors were measured every 2-3 days. On day 10, the median tumor volume for the vehicle group was 10 times the starting volume, while the gemcitabine alone group was four times the starting volume. The tumor volume for the gemcitabine plus Chk1 inhibitor co-administration group was also four times the starting volume. […]
structure (smiles),measurement,value
Nc1ccn([C@@H]2O[C@H](CO)[C@@H](O)C2(F)F)c(=O)n1 [gemcitabine],median tumor volume on day 10,four
